According to patent publication US10815312B2, “Bifunctional peptide having capability to permeate cells and capability to regenerate muscles and use thereof” (Seoul National University R&DB Foundation, priority 2018, dated 2020):

Tests used:
intracellular HDAC5 = target: T1, intracellular HDAC5 (Mus musculus, UniProt Q9Z2V6); test: Binding ability to intracellular HDAC5 by immunoprecipitation; conditions: C2C12 cells treated for 2 hours, immunoprecipitation with HDAC5 antibody, western blotting with FITC antibody (FIG. 2)
T1 construct: endogenous in cells; host or cells: C2C12 muscle precursor cells
Procedure: Muscle precursor cells (C2C12) were transplanted at a density of 1.5×10^6/well in a 10 pi dish and cultured in EMEM (Eagle's Minimal Essential Medium, ATCC). The medium was replaced at 24-hour intervals until confluency of cells reached 50%. When the confluency was 50%, the medium was replaced with Essential 8 medium, and the cells were treated with the peptide of SEQ ID NO: 1 for 2 hours. Then, the binding ability to intracellular HDAC5 was identified by immunoprecipitation. The lysate harvested with RIPA buffer containing a protease inhibitor was quantified through a BCA assay. Each sample quantified with a minimum volume of 500 μl at a concentration of 1 μg/ml was collected in a microtube, 2 μg of HDAC5 first antibody was added thereto, and the mixture was reacted under rotation for 16 hours at 4° C. in a refrigerated state. 20 μl of protein A/G agarose beads were added and reacted at 4° C. for 3 hours. Then, the beads were centrifuged, washed three times with DPBS and heated at 85° C. for 5 minutes in a 2× sample buffer, and only the supernatant was obtained, followed by western blotting and identification using an FITC antibody.

mesenchymal stem cells = test: Differentiation of stem cells into myocytes, gene expression of muscle differentiation markers by real-time RT-PCR; format: cell-based; conditions: 100 μM peptide, muscle differentiation medium, real-time RT-PCR (FIG. 3)
Procedure: 3×10^6 mesenchymal stem cells were cultured in a bacterial culture dish for 3 days to form spheroids. The medium used was low-glucose DMEM with 10% FBS and 1% P/S. After 3 days, the supernatant was removed and only the spheroids were collected and seeded in a cell culture dish coated with 10 ug/ml of collagen type I for 4 days. The medium used was DMEM/F12 with 1 ng/ml TGFb (transforming growth factor beta), 1×NEAA (nonessential amino acids) and 1×ITS (insulin-transferrin selenium). After 4 days, the medium was changed to low-glucose DMEM with 2% FBS and 10 ng/ml IGF-1 (insulin growth factor-1), differentiation was further induced for 2 weeks, and muscle differentiation markers were identified. The cells were treated with 100 μM of the group not treated with peptide using only a muscle differentiation medium (NT), 100 μM of the groups treated with the peptides of SEQ ID NOS: 1 to 8 and 100 μM of the control peptide (SEQ ID NO: 9) in order to determine the efficiency of expression of the muscle differentiation markers by the peptides. The levels of gene expression of dystrophin and myogenin, as muscle differentiation markers, were measured through real-time RT-PCR. The base sequences of the PCR primers used for amplification of respective genes are as follows.

T1 sequence (Q9Z2V6 whole entry): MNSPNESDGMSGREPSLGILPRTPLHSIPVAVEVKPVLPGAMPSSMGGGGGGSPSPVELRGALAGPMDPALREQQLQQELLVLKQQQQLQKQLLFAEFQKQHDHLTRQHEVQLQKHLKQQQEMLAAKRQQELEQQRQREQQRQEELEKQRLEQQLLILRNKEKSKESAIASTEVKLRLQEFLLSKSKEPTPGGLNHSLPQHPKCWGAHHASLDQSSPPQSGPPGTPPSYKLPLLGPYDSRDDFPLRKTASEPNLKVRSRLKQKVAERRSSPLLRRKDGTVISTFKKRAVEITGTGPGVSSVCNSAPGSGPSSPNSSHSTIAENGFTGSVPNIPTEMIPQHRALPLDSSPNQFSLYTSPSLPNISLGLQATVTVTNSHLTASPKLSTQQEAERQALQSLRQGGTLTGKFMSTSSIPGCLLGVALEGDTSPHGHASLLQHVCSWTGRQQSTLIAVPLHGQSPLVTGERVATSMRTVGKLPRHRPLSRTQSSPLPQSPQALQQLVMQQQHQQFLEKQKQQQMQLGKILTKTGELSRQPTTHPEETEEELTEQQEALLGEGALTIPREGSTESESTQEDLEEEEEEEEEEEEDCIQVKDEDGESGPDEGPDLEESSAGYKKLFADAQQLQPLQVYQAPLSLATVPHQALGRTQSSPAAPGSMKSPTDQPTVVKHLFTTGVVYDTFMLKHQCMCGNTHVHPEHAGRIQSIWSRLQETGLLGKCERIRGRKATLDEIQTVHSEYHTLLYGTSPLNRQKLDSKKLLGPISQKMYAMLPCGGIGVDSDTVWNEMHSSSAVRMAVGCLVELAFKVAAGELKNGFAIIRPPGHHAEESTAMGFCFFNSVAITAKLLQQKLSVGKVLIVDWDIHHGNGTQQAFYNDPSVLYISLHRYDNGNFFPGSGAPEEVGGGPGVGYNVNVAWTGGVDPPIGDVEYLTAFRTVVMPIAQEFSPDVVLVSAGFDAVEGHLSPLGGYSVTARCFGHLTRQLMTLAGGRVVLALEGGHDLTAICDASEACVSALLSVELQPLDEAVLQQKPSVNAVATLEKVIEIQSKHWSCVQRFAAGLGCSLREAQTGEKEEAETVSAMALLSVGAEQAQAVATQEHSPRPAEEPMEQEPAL

| Sequence | binding to intracellular HDAC5 (intracellular HDAC5) | gene expression of dystrophin (mesenchymal stem cells) | gene expression of myogenin (mesenchymal stem cells) |
| --- | --- | --- | --- |
| GKCSTRGRKCCRRKK [SEQ ID NO: 1] | binds to intracellular HDAC5 | – | – |
| GLRSKSKKFRRPDIQYPDA (Control peptide C1) [SEQ ID NO: 9] | – | did not exhibit an increase in gene expression | did not exhibit an increase in gene expression |
